Laboratory results reported in ChEMBL document CHEMBL4342498, “Design and Discovery of an Orally Efficacious Spiroindolinone-Based Tankyrase Inhibitor for the Treatment of Colon Cancer” (J Med Chem, 2020).
≈ marks a conversion by molar mass, not a printed value.

Molecular target: T1, Poly [ADP-ribose] polymerase tankyrase-2 (Homo sapiens, UniProt Q9H2K2)
T1 sequence (Q9H2K2 whole entry): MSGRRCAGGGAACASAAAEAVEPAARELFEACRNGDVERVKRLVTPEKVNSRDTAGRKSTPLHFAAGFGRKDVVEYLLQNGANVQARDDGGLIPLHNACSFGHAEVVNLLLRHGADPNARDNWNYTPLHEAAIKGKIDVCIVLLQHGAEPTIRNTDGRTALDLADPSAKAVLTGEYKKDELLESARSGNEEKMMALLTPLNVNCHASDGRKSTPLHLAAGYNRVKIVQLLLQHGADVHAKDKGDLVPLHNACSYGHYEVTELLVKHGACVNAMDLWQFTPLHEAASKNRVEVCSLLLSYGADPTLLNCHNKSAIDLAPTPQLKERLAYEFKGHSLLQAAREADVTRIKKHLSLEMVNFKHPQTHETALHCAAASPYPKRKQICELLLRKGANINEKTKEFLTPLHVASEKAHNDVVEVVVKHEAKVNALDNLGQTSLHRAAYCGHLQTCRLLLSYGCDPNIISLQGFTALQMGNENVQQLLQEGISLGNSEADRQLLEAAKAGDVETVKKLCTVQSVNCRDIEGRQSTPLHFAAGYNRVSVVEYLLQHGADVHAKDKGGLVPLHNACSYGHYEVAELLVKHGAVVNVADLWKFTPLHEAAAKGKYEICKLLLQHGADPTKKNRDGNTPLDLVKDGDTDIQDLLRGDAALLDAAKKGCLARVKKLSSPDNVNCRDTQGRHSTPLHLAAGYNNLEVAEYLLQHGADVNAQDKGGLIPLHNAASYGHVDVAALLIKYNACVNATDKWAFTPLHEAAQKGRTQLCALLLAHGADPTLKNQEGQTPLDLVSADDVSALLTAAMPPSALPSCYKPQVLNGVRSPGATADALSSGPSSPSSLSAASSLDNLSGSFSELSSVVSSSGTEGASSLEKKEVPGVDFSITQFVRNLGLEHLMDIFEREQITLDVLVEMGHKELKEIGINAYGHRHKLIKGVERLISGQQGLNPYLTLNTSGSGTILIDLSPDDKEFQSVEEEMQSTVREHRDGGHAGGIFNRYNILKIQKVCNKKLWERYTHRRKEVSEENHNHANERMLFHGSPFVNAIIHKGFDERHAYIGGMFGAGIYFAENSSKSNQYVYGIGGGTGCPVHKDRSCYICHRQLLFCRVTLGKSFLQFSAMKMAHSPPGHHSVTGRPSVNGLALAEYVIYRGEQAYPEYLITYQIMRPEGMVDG
Experiment: Inhibition of recombinant human N-terminal TEV cleavage site-fused/FLAG-poly his-tagged TNKS2 ARC5-SAM-PARP domain (613 to 1166 residues) expressed in Escherichia coli assessed as reduction in auto-PARylation preincubated for 10 mins followed by biotinylated-NAD+ addition and measured after 45 mins by ELISA
Conditions: not given

| SMILES | IC50 [nM] |
| --- | --- |
| COCCOc1cc(F)c2c(c1)N(C)C(=O)C21CCN(c2nc3c(c(=O)[nH]2)CCCN3C)CC1 | 6.4 |
| CN1CCCc2c1nc(N1CCC3(CC1)C(=O)N(C)c1cc(OCCN4CCCC4)cc(F)c13)[nH]c2=O | 12.4 |
| CN(C)c1cc(F)c2c(c1)N(C)C(=O)C21CCN(c2nc3c(c(=O)[nH]2)CCCN3C)CC1 | 13 |
| CN1CCCc2c1nc(N1CCC3(CC1)C(=O)N(CC1COC1)c1cc(F)cc(F)c13)[nH]c2=O | 12.2 |

Test system: COLO 320DM
Experiment: Antiproliferative activity against human COLO320DM cells assessed as inhibition of cell growth measured after 4 days by CellTiter-Glo assay
Type: functional
Conditions: 96 h

| SMILES | GI50 [nM] |
| --- | --- |
| COCCOc1cc(F)c2c(c1)N(C)C(=O)C21CCN(c2nc3c(c(=O)[nH]2)CCCN3C)CC1 | 50 |
| CN1CCCc2c1nc(N1CCC3(CC1)C(=O)N(C)c1cc(OCCN4CCCC4)cc(F)c13)[nH]c2=O | 1080 |
| CN(C)c1cc(F)c2c(c1)N(C)C(=O)C21CCN(c2nc3c(c(=O)[nH]2)CCCN3C)CC1 | 1170 |
| CN1CCCc2c1nc(N1CCC3(CC1)C(=O)N(CC1COC1)c1cc(F)cc(F)c13)[nH]c2=O | 200 |

Test system: not listed separately
Experiment: Stability in mouse liver microsomes assessed as parent compound remaining at 1 uM measured after 60 mins in presence of NADPH by LC-MS/MS analysis
Type: ADME, Microsome
Conditions: read-out: Stability

| SMILES | remaining at 1 h, 1 µM [%] |
| --- | --- |
| COCCOc1cc(F)c2c(c1)N(C)C(=O)C21CCN(c2nc3c(c(=O)[nH]2)CCCN3C)CC1 | 13.7 |
| CN1CCCc2c1nc(N1CCC3(CC1)C(=O)N(C)c1cc(OCCN4CCCC4)cc(F)c13)[nH]c2=O | 100 |
| CN(C)c1cc(F)c2c(c1)N(C)C(=O)C21CCN(c2nc3c(c(=O)[nH]2)CCCN3C)CC1 | 1.8 |
| CN1CCCc2c1nc(N1CCC3(CC1)C(=O)N(CC1COC1)c1cc(F)cc(F)c13)[nH]c2=O | 0.3 |

Test system: not listed separately
Experiment: Stability in human liver microsomes assessed as parent compound remaining at 1 uM measured after 60 mins in presence of NADPH by LC-MS/MS analysis
Type: ADME, Microsome
Conditions: read-out: Stability

| SMILES | remaining at 1 h, 1 µM [%] |
| --- | --- |
| COCCOc1cc(F)c2c(c1)N(C)C(=O)C21CCN(c2nc3c(c(=O)[nH]2)CCCN3C)CC1 | 1.8 |
| CN1CCCc2c1nc(N1CCC3(CC1)C(=O)N(C)c1cc(OCCN4CCCC4)cc(F)c13)[nH]c2=O | 61.5 |
| CN(C)c1cc(F)c2c(c1)N(C)C(=O)C21CCN(c2nc3c(c(=O)[nH]2)CCCN3C)CC1 | 1.8 |
| CN1CCCc2c1nc(N1CCC3(CC1)C(=O)N(CC1COC1)c1cc(F)cc(F)c13)[nH]c2=O | 0 |

Test system: MDR1
Experiment: Efflux ratio of permeability across basolateral to apical side over apical to basolateral side in MDCK2-MDR1 cells
Type: ADME, cell-based, Canis lupus familiaris
Conditions: dog, MDCK-MDR1

| SMILES | efflux ratio |
| --- | --- |
| COCCOc1cc(F)c2c(c1)N(C)C(=O)C21CCN(c2nc3c(c(=O)[nH]2)CCCN3C)CC1 | 7.5 |
| CN1CCCc2c1nc(N1CCC3(CC1)C(=O)N(C)c1cc(OCCN4CCCC4)cc(F)c13)[nH]c2=O | 21.9 |
| CN(C)c1cc(F)c2c(c1)N(C)C(=O)C21CCN(c2nc3c(c(=O)[nH]2)CCCN3C)CC1 | 2.7 |
| CN1CCCc2c1nc(N1CCC3(CC1)C(=O)N(CC1COC1)c1cc(F)cc(F)c13)[nH]c2=O | 8.4 |

Test system: not listed separately
Experiment: Efflux ratio of permeability across basolateral to apical side over apical to basolateral side in MDCK2 cells
Type: ADME, cell-based, Canis lupus familiaris, MDCK-II
Conditions: dog, mdck

| SMILES | efflux ratio |
| --- | --- |
| COCCOc1cc(F)c2c(c1)N(C)C(=O)C21CCN(c2nc3c(c(=O)[nH]2)CCCN3C)CC1 | 2.1 |
| CN1CCCc2c1nc(N1CCC3(CC1)C(=O)N(C)c1cc(OCCN4CCCC4)cc(F)c13)[nH]c2=O | 7.1 |
| CN(C)c1cc(F)c2c(c1)N(C)C(=O)C21CCN(c2nc3c(c(=O)[nH]2)CCCN3C)CC1 | 1.1 |
| CN1CCCc2c1nc(N1CCC3(CC1)C(=O)N(CC1COC1)c1cc(F)cc(F)c13)[nH]c2=O | 1.2 |

Test system: not listed separately
Experiment: Net efflux ratio of permeability across basolateral to apical side over apical to basolateral side in MDCK2-MDR1 cells to MDCK2 cells
Type: ADME, cell-based, Canis lupus familiaris
Conditions: dog, mdck

| SMILES | Ratio |
| --- | --- |
| COCCOc1cc(F)c2c(c1)N(C)C(=O)C21CCN(c2nc3c(c(=O)[nH]2)CCCN3C)CC1 | 3.6 |
| CN1CCCc2c1nc(N1CCC3(CC1)C(=O)N(C)c1cc(OCCN4CCCC4)cc(F)c13)[nH]c2=O | 3.1 |
| CN(C)c1cc(F)c2c(c1)N(C)C(=O)C21CCN(c2nc3c(c(=O)[nH]2)CCCN3C)CC1 | 2.5 |
| CN1CCCc2c1nc(N1CCC3(CC1)C(=O)N(CC1COC1)c1cc(F)cc(F)c13)[nH]c2=O | 7 |

Molecular target: T2, Poly [ADP-ribose] polymerase tankyrase-1 (Homo sapiens, UniProt O95271)
T2 sequence (O95271 whole entry): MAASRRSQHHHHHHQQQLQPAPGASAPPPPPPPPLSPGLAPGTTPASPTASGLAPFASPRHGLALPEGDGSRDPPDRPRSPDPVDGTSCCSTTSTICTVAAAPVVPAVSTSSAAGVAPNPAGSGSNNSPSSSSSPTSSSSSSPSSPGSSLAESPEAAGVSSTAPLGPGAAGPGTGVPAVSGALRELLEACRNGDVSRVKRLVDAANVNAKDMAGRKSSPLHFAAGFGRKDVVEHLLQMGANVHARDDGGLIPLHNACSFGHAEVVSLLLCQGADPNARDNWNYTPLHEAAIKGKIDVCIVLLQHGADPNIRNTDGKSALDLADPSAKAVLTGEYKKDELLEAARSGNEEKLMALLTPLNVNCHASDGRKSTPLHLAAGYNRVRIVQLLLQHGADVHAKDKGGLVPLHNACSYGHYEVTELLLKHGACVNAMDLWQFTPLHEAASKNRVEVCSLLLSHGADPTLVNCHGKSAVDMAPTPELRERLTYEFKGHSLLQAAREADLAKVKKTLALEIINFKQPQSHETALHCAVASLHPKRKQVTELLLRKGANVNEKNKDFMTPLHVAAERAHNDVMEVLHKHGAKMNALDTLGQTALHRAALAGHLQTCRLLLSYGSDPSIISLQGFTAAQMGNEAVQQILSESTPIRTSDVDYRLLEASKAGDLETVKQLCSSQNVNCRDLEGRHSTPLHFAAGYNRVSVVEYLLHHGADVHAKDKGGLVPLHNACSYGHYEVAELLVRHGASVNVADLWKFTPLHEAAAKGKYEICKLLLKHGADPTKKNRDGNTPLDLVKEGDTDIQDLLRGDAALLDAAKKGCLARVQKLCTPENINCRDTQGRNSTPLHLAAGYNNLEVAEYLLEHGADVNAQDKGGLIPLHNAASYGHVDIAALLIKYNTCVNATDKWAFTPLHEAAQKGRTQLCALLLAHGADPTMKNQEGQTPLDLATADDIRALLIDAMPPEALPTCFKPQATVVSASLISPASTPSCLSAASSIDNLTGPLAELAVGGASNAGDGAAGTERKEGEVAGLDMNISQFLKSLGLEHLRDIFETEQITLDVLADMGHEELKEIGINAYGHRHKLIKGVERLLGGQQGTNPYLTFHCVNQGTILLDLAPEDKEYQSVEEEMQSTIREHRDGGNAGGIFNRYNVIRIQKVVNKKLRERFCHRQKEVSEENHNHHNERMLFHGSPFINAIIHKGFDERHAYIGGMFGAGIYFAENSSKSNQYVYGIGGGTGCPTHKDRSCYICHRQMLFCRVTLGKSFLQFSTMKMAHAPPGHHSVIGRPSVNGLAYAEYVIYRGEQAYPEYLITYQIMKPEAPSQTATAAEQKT
Experiment: not given
Conditions: not given

| SMILES | IC50 [nM] |
| --- | --- |
| COCCOc1cc(F)c2c(c1)N(C)C(=O)C21CCN(c2nc3c(c(=O)[nH]2)CCCN3C)CC1 | 4.8 |
| CN1CCCc2c1nc(N1CCC3(CC1)C(=O)N(C)c1cc(OCCN4CCCC4)cc(F)c13)[nH]c2=O | 11.1 |
| CN(C)c1cc(F)c2c(c1)N(C)C(=O)C21CCN(c2nc3c(c(=O)[nH]2)CCCN3C)CC1 | 6.3 |
| CN1CCCc2c1nc(N1CCC3(CC1)C(=O)N(CC1COC1)c1cc(F)cc(F)c13)[nH]c2=O | 7.8 |

Molecular target: T3, Tankyrase 1/2 (Homo sapiens, UniProt Q9H2K2+O95271)
T3 sequence (Q9H2K2 whole entry): T1 sequence (Q9H2K2 whole entry)
T3 sequence (O95271 whole entry): T2 sequence (O95271 whole entry)
Experiment: not given
Conditions: hek293

| SMILES | IC50 [nM] |
| --- | --- |
| COCCOc1cc(F)c2c(c1)N(C)C(=O)C21CCN(c2nc3c(c(=O)[nH]2)CCCN3C)CC1 | 0.1 |
| CN1CCCc2c1nc(N1CCC3(CC1)C(=O)N(C)c1cc(OCCN4CCCC4)cc(F)c13)[nH]c2=O | 0.4 |
| CN(C)c1cc(F)c2c(c1)N(C)C(=O)C21CCN(c2nc3c(c(=O)[nH]2)CCCN3C)CC1 | 4.6 |
| CN1CCCc2c1nc(N1CCC3(CC1)C(=O)N(CC1COC1)c1cc(F)cc(F)c13)[nH]c2=O | 0.3 |

Molecular target: T3, Tankyrase 1/2
Experiment: not given
Conditions: not given

| SMILES | IC50 [nM] |
| --- | --- |
| COCCOc1cc(F)c2c(c1)N(C)C(=O)C21CCN(c2nc3c(c(=O)[nH]2)CCCN3C)CC1 | 1.3 |
| CN1CCCc2c1nc(N1CCC3(CC1)C(=O)N(C)c1cc(OCCN4CCCC4)cc(F)c13)[nH]c2=O | 6.6 |
| CN(C)c1cc(F)c2c(c1)N(C)C(=O)C21CCN(c2nc3c(c(=O)[nH]2)CCCN3C)CC1 | 20.7 |
| CN1CCCc2c1nc(N1CCC3(CC1)C(=O)N(CC1COC1)c1cc(F)cc(F)c13)[nH]c2=O | 7.2 |

Test system: not listed separately
Experiment: physchem
Conditions: phosphate buffered saline, pH 7.4

| SMILES | solubility at 1 h, 200 µM [µg/mL] |
| --- | --- |
| COCCOc1cc(F)c2c(c1)N(C)C(=O)C21CCN(c2nc3c(c(=O)[nH]2)CCCN3C)CC1 | 11.4 (≈ 24.2 µM) |
| CN1CCCc2c1nc(N1CCC3(CC1)C(=O)N(C)c1cc(OCCN4CCCC4)cc(F)c13)[nH]c2=O | 100 (≈ 196 µM) |
| CN(C)c1cc(F)c2c(c1)N(C)C(=O)C21CCN(c2nc3c(c(=O)[nH]2)CCCN3C)CC1 | 7.4 (≈ 16.8 µM) |
| CN1CCCc2c1nc(N1CCC3(CC1)C(=O)N(CC1COC1)c1cc(F)cc(F)c13)[nH]c2=O | 9.3 (≈ 19.7 µM) |
